Source: patent US20260234630A1, “Methods for Treating Multiple Myeloma” (Celgene Corporation, priority 2022, published 2026)

Columns and labels:
[1] = test system: UHRF1; assay: Protein expression changes by mass spectrometry in H929 cells; type: cell-based; settings: CC-220 0.1 μM, 24 hr vs DMSO
Experimental: FIG. 1A-1F. Down regulation of UHRF1 transcription by IMiDs correlates with drug sensitivity of multiple myeloma. (1A) Volcano plot of protein expression changes determined by mass spectrometry in H929 cells at 24 hr of treatment with CC-220 (0.1 μM) or DMSO control. X axis, Log2fold change (FC); Y axis, significance,-log 10 [p-value]. […] (1B) Volcano plot of gene expression changes determined by Affymetrix microarray in H929 cells treated with POM (1 μM) or DMSO for 24 hr. X axis, Log2fold change (FC); Y axis, significance,-log 10 [p-value], n=2 technical replicates). […] (1C) Western blot analysis protein expression of UHRF1, Ikaros, Aiolos and ZFP91 in H929 cells treated with 1 μM POM for indicated time. (1D) qRT-PCR analysis of UHRF1 gene expression levels in cells as in (1C). Error bars represent the SEM from duplicate measurements. (1E) Western blot analysis protein expression of UHRF1 and indicated proteins in MM cells treated with DMSO (−) or 1 μM POM (+) for 3 days. GAPDH serves as a loading control. (1F) Thymidine incorporation of various MM cell lines treated with indicated dose of POM for 3 days. Error bars represent the SEM from technical replicates. […]

[2] = test system: UHRF1 mRNA; assay: qRT-PCR of UHRF1 gene expression in MM cells; type: cell-based; settings: drug sensitive MM (FIG. 6 title)
Experimental: FIG. 1A-1F. Down regulation of UHRF1 transcription by IMiDs correlates with drug sensitivity of multiple myeloma. (1A) Volcano plot of protein expression changes determined by mass spectrometry in H929 cells at 24 hr of treatment with CC-220 (0.1 μM) or DMSO control. X axis, Log2fold change (FC); Y axis, significance,-log 10 [p-value]. […] (1B) Volcano plot of gene expression changes determined by Affymetrix microarray in H929 cells treated with POM (1 μM) or DMSO for 24 hr. X axis, Log2fold change (FC); Y axis, significance,-log 10 [p-value], n=2 technical replicates). […] (1C) Western blot analysis protein expression of UHRF1, Ikaros, Aiolos and ZFP91 in H929 cells treated with 1 μM POM for indicated time. (1D) qRT-PCR analysis of UHRF1 gene expression levels in cells as in (1C). Error bars represent the SEM from duplicate measurements. (1E) Western blot analysis protein expression of UHRF1 and indicated proteins in MM cells treated with DMSO (−) or 1 μM POM (+) for 3 days. GAPDH serves as a loading control. (1F) Thymidine incorporation of various MM cell lines treated with indicated dose of POM for 3 days. Error bars represent the SEM from technical replicates.
FIG. 2A-2E. UHRF1 expression is positively regulated by Ikaros and Aiolos in IMiDs sensitive MM cells. (2A) Western blot analysis protein expression of UHRF1, Ikaros, Aiolos, ZFP91 and Cereblon expression in control [shLuciferase (shLuc)] and cereblon knockdown (shCRBN) H929 cells treated with DMSO and 1 μM POM for 3 days. GAPDH, loading control. Arrow head, UHRF1. (2B) qRT-PCR analysis of UHRF1 gene expression levels in cells as in (2A). Data was normalized to ACTB. Error bars represent the SEM of technical duplicates. *** P<0.001 (Two-tailed unpaired Student's t-test). (2C) Western blot analysis protein expression of UHRF1, Ikaros and Aiolos in stably transduced H929 cells after Dox induction (0, 10, 50 or 100 ng/ml) for 3 days of non-target shRNA (shNT) or shRNAs targeting Ikaros (shIKZF1) or Aiolos (shIKZF3). (2D) qRT-PCR analysis of UHRF1 gene expression levels in cells as in (2C). Shown are cells induced with Dox (50 ng/ml) for 3 days. Data was normalized to GAPDH. Error bars represent the SEM of technical duplicates. *P<0.05, ** P<0.01, *** P<0.001, **** P<0.0001 (Two-tailed unpaired Student's t-test). (2E) ChIP-qPCR analysis of the occupancy Aiolos (upper panel) or H3K27ac (lower panel) occupancy at transcription star site (TSS), gene body (+7 kb) and gene end (GE) of UHRF1 gene in H929, MM1.S or RPMI 8226 cells treated with DMSO or 1 μM POM for 24 hr. ChIP with control rabbit IgG (IgG) serves as a negative control. Error bars represent the SEM of technical triplicates. * P<0.05, ** P<0.01, **** P<0.0001 (Two-tailed unpaired Student's t-test).
FIG. 6A-6D. […] (6A) Immunocytochemistry assay of UHRF1 in H929 cells treated with DMSO or 1 μM POM for 48 hrs. (6B) qRT-PCR analysis of UHRF1 gene expression levels in indicated MM cells treated with indicated doses of POM for 3 days. Data was normalized to ACTB. Error bars represent the SEM from duplicate measurements. * P<0.05, ** P<0.01, *** P<0.001, **** P<0.0001 (Two-tailed Student's t-test). […]
Total RNA was extracted by RNeasy Mini Kit (Qiagen) and reverse transcribed by iScrip cDNA Synthesis Kit (Bio-rad). Quantitative real-time PCR (qPCR) was conducted on a VillA 7 System using the Power SYBR Green PCR Master Mix (Applied Biosystems). Gene expression values were calculated by normalization to Actb using the comparative CT method.

[3] = test system: acute myeloid leukemia (AML); settings: administered alone; cited from earlier work

Compound: O=C1CC[C@H](N2Cc3c(OCc4ccc(CN5CCOCC5)cc4)cccc3C2=O)C(=O)N1 [CC-220]
- UHRF1 protein expression change (mass spectrometry) [1]: one of the most significantly downregulated proteins
- UHRF1 gene expression [2]: downregulated

Compound: CT-011: anti-PD-1 antibody, a humanized antibody
- response in treating AML at relapse [3]: failed to show response
